Assay results published in ChEMBL document CHEMBL4619823, “Allosteric Modulation of Protein Arginine Methyltransferase 5 (PRMT5)” (ACS Med Chem Lett, 2020).
pEC50: −log10 of the molar value.

Target: Protein arginine N-methyltransferase 5 (Homo sapiens, UniProt O14744)
Assay: Inhibition of PRMT5 in human MCF7 cells assessed as reduction in symmetrically dimethylated nuclear protein level incubated for 3 days by Alexafluor-488 conjugate anti-rabbit antibody/DAPI staining based IN cell analyzer method

Sequence of Protein arginine N-methyltransferase 5 (O14744 whole entry): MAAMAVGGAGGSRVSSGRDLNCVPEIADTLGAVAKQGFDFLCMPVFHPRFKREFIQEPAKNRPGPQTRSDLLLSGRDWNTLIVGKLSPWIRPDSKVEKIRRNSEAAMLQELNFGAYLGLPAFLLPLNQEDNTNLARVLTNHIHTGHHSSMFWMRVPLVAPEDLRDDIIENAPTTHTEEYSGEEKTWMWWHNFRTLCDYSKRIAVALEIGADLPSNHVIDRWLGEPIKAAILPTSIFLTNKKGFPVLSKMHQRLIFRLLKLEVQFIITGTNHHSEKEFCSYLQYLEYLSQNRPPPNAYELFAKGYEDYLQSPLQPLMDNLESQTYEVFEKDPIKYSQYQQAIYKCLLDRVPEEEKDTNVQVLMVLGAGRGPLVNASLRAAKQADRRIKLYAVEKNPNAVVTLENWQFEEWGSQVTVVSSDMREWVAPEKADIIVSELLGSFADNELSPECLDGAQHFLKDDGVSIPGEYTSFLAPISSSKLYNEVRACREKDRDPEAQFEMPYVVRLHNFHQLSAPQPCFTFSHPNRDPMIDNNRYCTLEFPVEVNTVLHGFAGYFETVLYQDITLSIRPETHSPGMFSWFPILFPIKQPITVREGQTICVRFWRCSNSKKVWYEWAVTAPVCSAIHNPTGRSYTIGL

Question: How did the pEC50 turn out when COc1ccc([C@@]2(C34CC5CC(CC(C5)C3)C4)N=C(N)N(C)C2=O)cc1 was run?
Answer: 5.34

Target: PRMT5/MEP50 complex (Homo sapiens, UniProt O14744)
Sequence (O14744 whole entry): as above
Sequence (Q9BQA1 whole entry, further chain): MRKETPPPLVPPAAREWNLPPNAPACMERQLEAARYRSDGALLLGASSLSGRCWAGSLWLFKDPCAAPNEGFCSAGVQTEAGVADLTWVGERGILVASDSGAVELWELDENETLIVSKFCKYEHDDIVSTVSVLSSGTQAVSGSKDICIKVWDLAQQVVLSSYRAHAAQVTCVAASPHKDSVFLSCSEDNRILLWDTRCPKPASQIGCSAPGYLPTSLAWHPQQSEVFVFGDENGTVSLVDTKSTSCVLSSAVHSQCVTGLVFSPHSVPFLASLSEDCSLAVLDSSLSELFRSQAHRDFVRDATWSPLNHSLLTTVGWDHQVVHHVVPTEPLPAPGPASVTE
Assay: Inhibition of recombinant Avi-tagged PRMT5 (2 to 637)/ His-tagged MEP50 (2 to 342) (unknown origin) expressed in baculovirus infected Sf21 cells using biotinylated H4R3 (Me1) peptide as substrate in presence of SAM preincubated for 60 mins followed by substrate addition after 150 mins by biochemical methylation assay

Question: COc1ccc([C@@]2(C34CCC(CC3)CC4)N=C(N)N(C)C2=O)cc1 was tested. Which pEC50 did it give?
Answer: 6.62

Question: How did the pEC50 turn out when COc1ccc([C@@]2(C34CC5CC(CC(O)(C5)C3)C4)N=C(N)N(C)C2=O)cc1 was run?
Answer: 6.66

Question: How did the pEC50 turn out when CN1C(=O)[C@](c2ccc3ccccc3c2)(C23CC4CC(CC(C4)C2)C3)N=C1N was run?
Answer: 7.05

Question: With CN1C(=O)[C@@](CCC2CCCCC2)(c2ccccc2)N=C1N as the compound, how does the pEC50 read?
Answer: 7.30

Question: With COc1ccc([C@]2(C34CC5CC(CC(C5)C3)C4)N=C(N)N(C)C2=O)cc1 as the compound, how does the pEC50 read?
Answer: 5.51

Question: With CN1C(=O)[C@](c2ccccc2)(C23CC4CC(CC(C4)C2)C3)N=C1N as the compound, how does the pEC50 read?
Answer: 7.92

Question: With COc1ccc([C@@]2(C34CC5CC(CC(C5)C3)C4)N=C(N)N(C)C2=O)cc1 as the compound, how does the pEC50 read?
Answer: 7.80

Question: How did the pEC50 turn out when CC1CCN2C(=O)[C@](c3ccccc3)(C34CC5CC(CC(C5)C3)C4)N=C2N1 (stereo partly drawn) was run?
Answer: 7.18

Question: How did the pEC50 turn out when COc1ccc(C2(C34CC5CC(O)(CC(F)(C5)C3)C4)N=C(N)N(C)C2=O)cc1 (stereo not drawn) was run?
Answer: 6.21

Question: How did the pEC50 turn out when CCC1CCN2C(=O)[C@](c3ccccc3)(C34CC5CC(CC(C5)C3)C4)N=C2N1 (stereo partly drawn) was run?
Answer: 7.17

Question: How did the pEC50 turn out when COc1cccc([C@@]2(C34CC5CC(CC(C5)C3)C4)N=C(N)N(C)C2=O)c1 was run?
Answer: 7.25

Target: PRMT5/MEP50 complex (Homo sapiens) (UniProt O14744+Q9BQA1)
Assay: Binding affinity to human biotinylated PRMT5/MEP50 assessed as association rate constant by SPR analysis
Assay type: protein-complex assay

Question: How did the Ka turn out when COc1ccc([C@@]2(C34CC5CC(CC(C5)C3)C4)N=C(N)N(C)C2=O)cc1 was run?
Answer: 1000 M⁻¹ s⁻¹
